Source: patent publication US20230080054A1 (ILDONG PHARMACEUTICAL CO., LTD., priority 2021, published 2023)

Columns and labels:
citrated human blood = assay: NATEM (ROTEM thromboelastometry, blood clot formation); conditions: 100 μM, 2% v/v DMSO, 15 min preincubation
Experimental: (§1) 1. Materials and Instruments
Star-TEM reagent (TEM International GmbH, cat. #000503-01), Dimethyl sulfoxide (Sigma-Aldrich, cat. #D2438), Cleancle normal saline (JW Pharm), and ROTEM® delta system (TEM International GmbH).
Human blood research was experimented after approval from the Yonsei University Institutional Review Board (IRB) in accordance with the Life Ethics and Safety Act.
Blood samples for NATEM were kept at room temperature, and all NATEM analyses were performed at 37° C. NATEM was carried out using 300 μL of citrated human blood preincubating with test compounds (100 μM, 2% v/v DMSO) for 15 minutes in cuvette and […] with Star-TEM reagent according to the manufacturer's manual (ROTEM; Tem International GmbH, Munich, Germany). After addition of the star-TEM reagent, cuvettes were measured by ROTEM® delta system. Blood clot formation was evaluated.
The obtained parameters were time to clot initiation (Clotting Time, CT), time to clot formation, α angle for clot growth kinetics (initial rate of fibrin polymerization), amplitude (firmness) at 10 minutes, maximum clot firmness, and maximum lysis.

human ANO6 = target: T1, human ANO6 (Homo sapiens, UniProt Q4KMQ2); assay: LACT C2 assay (phosphatidylserine scramblase function assay); type: cell-based; conditions: test compound 100 nM, FRT cells expressing human ANO6, 10 μM ionomycin, read-out: Inhibition Level 100 nM
T1 construct: expressed in transfected cells
T1 sequence (Q4KMQ2 1-931 isoform Q4KMQ2-2): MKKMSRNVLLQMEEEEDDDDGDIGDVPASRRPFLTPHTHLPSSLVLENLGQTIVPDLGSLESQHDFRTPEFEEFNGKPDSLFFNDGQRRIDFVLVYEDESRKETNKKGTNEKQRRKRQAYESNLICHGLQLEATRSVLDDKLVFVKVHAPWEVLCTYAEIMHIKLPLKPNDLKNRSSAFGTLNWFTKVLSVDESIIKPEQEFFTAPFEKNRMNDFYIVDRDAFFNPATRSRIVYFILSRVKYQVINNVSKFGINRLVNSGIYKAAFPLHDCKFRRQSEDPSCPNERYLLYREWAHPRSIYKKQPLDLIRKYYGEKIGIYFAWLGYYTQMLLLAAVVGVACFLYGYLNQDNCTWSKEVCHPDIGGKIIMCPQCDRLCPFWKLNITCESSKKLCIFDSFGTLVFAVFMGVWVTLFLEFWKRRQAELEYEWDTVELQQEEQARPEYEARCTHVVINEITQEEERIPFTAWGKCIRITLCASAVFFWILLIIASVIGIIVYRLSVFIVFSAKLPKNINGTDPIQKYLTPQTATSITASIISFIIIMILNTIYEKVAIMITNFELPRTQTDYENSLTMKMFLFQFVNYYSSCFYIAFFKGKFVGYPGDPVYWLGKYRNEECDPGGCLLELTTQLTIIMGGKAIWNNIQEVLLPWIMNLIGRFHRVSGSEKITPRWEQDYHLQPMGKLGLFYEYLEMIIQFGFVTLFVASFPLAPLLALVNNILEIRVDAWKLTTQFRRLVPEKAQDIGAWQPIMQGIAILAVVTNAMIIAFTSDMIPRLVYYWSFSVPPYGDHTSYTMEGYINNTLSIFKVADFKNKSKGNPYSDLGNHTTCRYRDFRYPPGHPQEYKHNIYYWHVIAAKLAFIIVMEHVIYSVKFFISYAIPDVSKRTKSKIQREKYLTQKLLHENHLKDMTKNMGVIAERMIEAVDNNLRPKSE
How it was run: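 Inhibition was normalised between ionomycin-only (0%) and untreated (100%) wells, with triplicates averaged. Readout was background-corrected Lact-C2-GFP (500 nM) fluorescence from imaged cells. The cells were FRT cells stably expressing human ANO6, given compound at 1% DMSO for 10 min before a 10 min 10 μM ionomycin challenge.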

[1] = system: platelet-rich plasma (PRP); assay: Recalcification time of rat platelet-rich plasma; conditions: 30 μM, vs 2% DMSO control
Experimental: Example 5: Recalcification Time
as §1
Isoflurane (Hana Pharm, cat. #9008), Isotonic Sodium Chloride Injection (Daihan Pharm, cat. #331), Citrate-dextrose solution (Sigma-Aldrich, cat. #C3821), Calcium chloride solution (Sigma-Aldrich, cat. #21115), 22G Syringe 10 mL (Koreavaccine), Dimethyl sulfoxide (Sigma-Aldrich, cat. #D5879), Apixaban (AK scientific, cat. #X1060), 96 Well Cell Culture Plates (SPL Life Sciences, cat. #30096), Synergy H4 Hybrid Microplate Reader (BioTek), Combi R515 Multi-purpose Centrifuge (Hanil Scientific), BS-06 Shaking & Heating Baths (JEIO TECH), and PST-60HL-4 Plate Shaker-Thermostat (Bio-San)
Seven-week-old male SD Rat (ORIENT BIO.) were maintained under controlled conditions of temperature (22±2° C.) and 12-h light/12-h dark cycle. Rats were housed in the pathogen-free facility of the Laboratory Animal Research Center in Ildong Pharmaceutical Co. Ltd. All procedures on animals were conducted in accordance with the relevant national regulatory guidelines and individual experiments approved by the Ildong Pharmaceutical Co. Ltd., Institutional Animal Care and Use Committee (IACUC) (approval No.: A2106-3, 2108-4).
The ability of test compounds to interfere with plasma coagulation, in the presence of platelets, was analyzing by measuring the recalcification time of rat plasma. The blood of animals was collected into 15 mL tubes containing Citrate-dextrose solution (9:1 v/v) before performing the assays. For recalcification time, platelet-rich plasma (PRP) samples were obtained by centrifugation at 360×g for 10 minutes. And the PRP were preincubated for 5 minutes (37° C.). In a 96 well microplate, test compounds (2 μL) were treated in 98 μL of platelet rich plasma. After mixing with a pipette, it was incubated at 37° C. for 15 minutes. The reaction was started by addition of 200 μL of pre-warmed CaCl2) (16 mM). Immediately, put the microplate in a microplate reader and the signals were measured by the following steps.
(1) 405 nm wavelength absorbance signals were recorded in every 10 seconds at 37° C.
(2) Basal absorbance signals were recorded for 0 second.
The signal variance of each of the test compounds was obtained by the following step.
(1) Background signals (t=O) were subtracted from recording values, and the resulting values were converted to change values. The values at 0 second were set to be zero.
The retardation time of test compound were calculated by the following formula:
Retardation time (sec)=[log EC50 (test sample)−log EC50 (DMSO control)]
As described above, a DMSO control group is a group to which 2% DMSO was treated.
The assay result is shown in Table 5, where compounds (30 μM) having less than 20 seconds of retardation time are marked by ‘C’; the compounds (30 μM) having retardation time of 20 seconds or more to less than 50 seconds are marked by ‘B’; and the compounds (30 μM) having retardation time of 50 seconds or more are marked by ‘A’.

Compound: O=C(N[C@@H]1C[C@H]1c1ccccc1)c1cccc(Nc2ccc(-c3ccncn3)cc2)c1 [Compound 174, N-((1R,2S)-2-phenylcyclopropyl)-3-((4-(pyrimidin-4-yl)phenyl)amino)benzamide]
- A10, amplitude (firmness) at 10 minutes (citrated human blood): 45 mm
- CFT, clot formation time (citrated human blood): 180 s
- CT, clotting time (citrated human blood): 665 s
- MCF, maximum clot firmness (citrated human blood): 56 mm
- ML, maximum lysis (citrated human blood): 2%
- α, α-angle (citrated human blood): 57 °
- inhibition at 0.1 µM (human ANO6): ≥ 60%
- Inhibition Level (retardation time, recalcification time) [1]: B (the compounds (30 μM) having retardation time of 20 seconds or more to less than 50 seconds)
